Reference: patent US20260191838A1, “COMBINATIONS COMPRISING A MENIN-MLL INHIBITOR AND A BCL-2 INHIBITOR” (JANSSEN PHARMACEUTICA NV, priority 2022, published 2026)

Legend:
MOLM-13 cells = experiment: In vitro proliferation (Cell Titer Glo), Compound 51 with decitabine and venetoclax, MOLM-13; assay type: cell-based, human; design: key to maxR test call (additive / antagonism / synergy): no asterisk: absence of any asterisk indicates an additive effect; antagonism is indicated by “*”; synergy is indicated by “**”; Effect size (BIGL, HSA null model): scale not given here
Procedure: 3a) In Vitro Proliferation—Menin-MLL Inhibitor in Combination with a DNA Hypomethylating Agent (Decitabine) and a BCL2 Inhibitor (Venetoclax)
The effect of Compound 51 in combination with decitabine and venetoclax was determined in proliferation assays.
AML cell lines MOLM-13, OCI-AML3 and MV4-11 were purchased from DSMZ. MOLM-13 were grown in RPMI medium supplemented with 10% Fetal Bovine Serum (FBS) and 1% penicillin/streptomycin. MV4-11 cells were grown in IMDM medium supplemented with 10% FBS and 1% penicillin/streptomycin. OCI-AML3 cells were cultured in 80-90% alpha-MEM (without ribo- and deoxyribonucleosides)+10-20% FBS. All cell lines were cultured at 37° C. in 5% CO2 atmosphere.
AML cell lines (10×10^3 cells/well) were seeded in 96-well plates and grown for 6 days in serum (10%)-containing medium in the presence or absence of inhibitors at the indicated concentrations. Proliferation was analyzed by means of a Cell Titer Glo assay using the CellTiter 96 Aqueous One Solution Cell Proliferation Assay (Promega, Madison, WI, USA), according to the manufacturer's instructions. Data are mean with standard deviation from two to four independent experiments in technical triplicates.
R-based Biochemically Intuitive Generalized Loewe (BIGL) model implemented with a highest single agent (HSA) null model. Specifically, the BIGL methodology was applied to calculate drug-drug interactions (Van der Borght, K., Tourny, A., Bagdziunas, R. et al. BIGL: Biochemically Intuitive Generalized Loewe null model for prediction of the expected combined effect compatible with partial agonism and antagonism. Sci Rep 7, 17935 (2017); Thas, O., Tourny, A., Verbist, B., Hawinkel, S., Nazarov, M., Mutambanengwe, K., & Bijnens, L. Statistical detection of synergy: new methods and a comparative study. Pharmaceutical Statistics (2021)).
Synergy matrix results of the BIGL analysis of the cell line data with HSA as mean model calculated on the basis of the cellular metabolic activity using Cell Titer-Glo assay. Bootstrap confidence intervals are indicated. Effect sizes and their confidence intervals are shown. […] No significant average effect if zero is included in the interval.

[1] = tested on: MOLM-13 tumors in NSG mice; experiment: Efficacy (survival) in disseminated MOLM-13 (KMT2A-rearranged) IV model in NSG mice; assay type: in vivo
Procedure: 4) Efficacy of Menin-KMT2A Inhibitor in Combination with Venetoclax, and Optionally, Azacitidine, in MOLM-13 (KMT2A-Rearranged) IV Model in NSG Mice
Compound 51 was formulated in purified pyrogen-free deionized water, pH 4.0 and prepared to reach a total volume of 8 mL/kg. Doses were adjusted by individual body weight each day. Working stocks of Compound 51 were prepared once per week for each study and stored at 25° C.
Female NSG (NOD.Cg-Prkdc^scid Il2rg^tm1Wj1/SzJ) mice were used when they were approximately 6 to 8 weeks of age and weighed approximately 25 g. All animals could acclimate and recover from any shipping-related stress for a minimum of 7 days prior to experimental use. Autoclaved water and irradiated food were provided ad libitum, and the animals were maintained on a 12 hour light and dark cycle. Cages, bedding, and water bottles were autoclaved before use and changed weekly. The tissue culture and cell injection reagents are summarized below in Table 5.
Tumor Model and Cell Culture Method
Human AML MOLM-13 cells were cultured at 37° C., 5% CO2 in the indicated complete culture media (RPMI 1640+10% HI-FBS+2 mM L-glutamine+50 μg/ml Gentamycin). Cells were harvested while in logarithmic growth and resuspended in cold (4° C.) Roswell Park Memorial Institute (RPMI) 1640 in serum-free medium.
For the disseminated MOLM-13 model, each mouse received 1×10^5 cells via IV injection in a total volume of 0.2 mL using a 26-gauge needle.
Day 0 is the day of tumor cell implantation and study initiation.
Mice bearing IV MOLM-13 xenograft tumors were randomly assigned to treatment groups 5 days post-tumor cell engraftment.
Animals were monitored daily for clinical signs related to either compound toxicity or tumor burden (i.e., hind limb paralysis, lethargy, etc.).
For survival assessment, results were plotted as the percentage survival against days post tumor implant. Negative clinical signs and/or ≥20% body weight loss was used as a surrogate endpoint for death. Median survival was determined utilizing Kaplan-Meier survival analysis. The percent increased life span (ILS) was calculated as: ((median survival day of treated group−median survival day of control group)/median survival day of control group)×100. Animals failing to reach the surrogate endpoint due to adverse clinical signs or death unrelated to treatment were censored for the survival assessment. As defined by NCI criteria, ≅25% ILS is considered biologically significant. (Johnson J I et al. Br J Cancer. 2001. 84(10), 1424-1431).
Survival and body weight data were graphically represented utilizing Prism (Version 9). Statistical significance for body weights was evaluated as described above. Statistical significance was evaluated for Kaplan-Meier survival plots comparing therapeutic treatment group vs. appropriate vehicle-treated control using log-rank (Mantel-Cox) test in R software version 3.4.2. Differences between groups were considered significant when the p value was ≤0.05.
The disseminated MOLM-13 model described above was used to examine the efficacy of menin-KMT2A-inhibitor (formulated as described above) in combination with venetoclax (formulated in polyethylene glycol [PEG]-400/Phosal50/dimethyl sulfoxide [DMSO]), and optionally azacitidine (formulated in 0.9% saline). Treatment with compound(s) was initiated 5 days after cell injection. Compound 51 was given in the morning, and venetoclax or azacitidine was given in the afternoon, approximately 6-8 hr apart.

[2] = Compound 51 0.05 μM, Decitabine 0.015 μM, Venetoclax 0.001 μM
[3] = Compound 51 0.05 μM, Decitabine 0.35 μM, Venetoclax 0.002 μM
[4] = Compound 51 0.1 μM, Decitabine 0.015 μM, Venetoclax 0.001 μM
[5] = Compound 51 0.1 μM, Decitabine 0.35 μM, Venetoclax 0.002 μM
[6] = Compound 51 1 μM, Decitabine 0.35 μM, Venetoclax 0.002 μM
[7] = Compound 51 10 μM, Decitabine 0.015 μM, Venetoclax 0.001 μM
[8] = Compound 51 10 μM, Decitabine 0.35 μM, Venetoclax 0.002 μM

CC(=O)N1CCC(CN2CC[C@@H](Cc3cn(-c4ccc(F)cc4C(=O)N(C)C(C)C)c4cncc(C)c34)C2)CC1 [Compound 51]
Effect size (BIGL, HSA null model) (MOLM-13 cells; Compound 51 0.001 μM, Decitabine 0.0015 μM, Venetoclax 0.0001 μM): −0.04 | Effect size (BIGL, HSA null model) (MOLM-13 cells; Compound 51 0.001 μM, Decitabine 0.015 μM, Venetoclax 0.001 μM): −0.05 | Effect size (BIGL, HSA null model) (MOLM-13 cells; Compound 51 0.001 μM, Decitabine 0.35 μM, Venetoclax 0.002 μM): 0.01 | Effect size (BIGL, HSA null model) (MOLM-13 cells; Compound 51 0.001 μM, Decitabine 1.5 μM, Venetoclax 0.02 μM): −0.04 | Effect size (BIGL, HSA null model) (MOLM-13 cells; Compound 51 0.001 μM, Decitabine 3 μM, Venetoclax 0.2 μM): −0.03 | Effect size (BIGL, HSA null model) (MOLM-13 cells; Compound 51 0.01 μM, Decitabine 0.0015 μM, Venetoclax 0.0001 μM): −0.02 | Effect size (BIGL, HSA null model) (MOLM-13 cells; Compound 51 0.01 μM, Decitabine 0.015 μM, Venetoclax 0.001 μM): −0.17 | Effect size (BIGL, HSA null model) (MOLM-13 cells; Compound 51 0.01 μM, Decitabine 0.35 μM, Venetoclax 0.002 μM): −0.1 | Effect size (BIGL, HSA null model) (MOLM-13 cells; Compound 51 0.01 μM, Decitabine 1.5 μM, Venetoclax 0.02 μM): −0.05 | Effect size (BIGL, HSA null model) (MOLM-13 cells; Compound 51 0.01 μM, Decitabine 3 μM, Venetoclax 0.2 μM): −0.03 | Effect size (BIGL, HSA null model) (MOLM-13 cells; Compound 51 0.05 μM, Decitabine 0.0015 μM, Venetoclax 0.0001 μM): −0.03 | Effect size (BIGL, HSA null model) (MOLM-13 cells; [2]): −0.18 | maxR test call (additive / antagonism / synergy) (MOLM-13 cells; [2]): ** | Effect size (BIGL, HSA null model) (MOLM-13 cells; [3]): −0.25 | maxR test call (additive / antagonism / synergy) (MOLM-13 cells; [3]): ** | Effect size (BIGL, HSA null model) (MOLM-13 cells; Compound 51 0.05 μM, Decitabine 1.5 μM, Venetoclax 0.02 μM): −0.05 | Effect size (BIGL, HSA null model) (MOLM-13 cells; Compound 51 0.05 μM, Decitabine 3 μM, Venetoclax 0.2 μM): −0.03 | Effect size (BIGL, HSA null model) (MOLM-13 cells; Compound 51 0.1 μM, Decitabine 0.0015 μM, Venetoclax 0.0001 μM): 0.01 | Effect size (BIGL, HSA null model) (MOLM-13 cells; [4]): −0.16 | maxR test call (additive / antagonism / synergy) (MOLM-13 cells; [4]): ** | Effect size (BIGL, HSA null model) (MOLM-13 cells; [5]): −0.27 | maxR test call (additive / antagonism / synergy) (MOLM-13 cells; [5]): ** | Effect size (BIGL, HSA null model) (MOLM-13 cells; Compound 51 0.1 μM, Decitabine 1.5 μM, Venetoclax 0.02 μM): −0.05 | Effect size (BIGL, HSA null model) (MOLM-13 cells; Compound 51 0.1 μM, Decitabine 3 μM, Venetoclax 0.2 μM): −0.03 | Effect size (BIGL, HSA null model) (MOLM-13 cells; Compound 51 1 μM, Decitabine 0.0015 μM, Venetoclax 0.0001 μM): 0.05 | Effect size (BIGL, HSA null model) (MOLM-13 cells; Compound 51 1 μM, Decitabine 0.015 μM, Venetoclax 0.001 μM): −0.12 | Effect size (BIGL, HSA null model) (MOLM-13 cells; [6]): −0.28 | maxR test call (additive / antagonism / synergy) (MOLM-13 cells; [6]): ** | Effect size (BIGL, HSA null model) (MOLM-13 cells; Compound 51 1 μM, Decitabine 1.5 μM, Venetoclax 0.02 μM): −0.05 | Effect size (BIGL, HSA null model) (MOLM-13 cells; Compound 51 1 μM, Decitabine 3 μM, Venetoclax 0.2 μM): −0.03 | Effect size (BIGL, HSA null model) (MOLM-13 cells; Compound 51 10 μM, Decitabine 0.0015 μM, Venetoclax 0.0001 μM): −0.05 | Effect size (BIGL, HSA null model) (MOLM-13 cells; [7]): −0.17 | maxR test call (additive / antagonism / synergy) (MOLM-13 cells; [7]): ** | Effect size (BIGL, HSA null model) (MOLM-13 cells; [8]): −0.29 | maxR test call (additive / antagonism / synergy) (MOLM-13 cells; [8]): ** | Effect size (BIGL, HSA null model) (MOLM-13 cells; Compound 51 10 μM, Decitabine 1.5 μM, Venetoclax 0.02 μM): −0.05 | Effect size (BIGL, HSA null model) (MOLM-13 cells; Compound 51 10 μM, Decitabine 3 μM, Venetoclax 0.2 μM): −0.03 | combination effect on proliferation (in words) (MOLM-13 cells; pairwise matrix of decitabine and Compound 51 in the presence of Venetoclax, MOLM-13, 6-day CellTiter-Glo): synergistically cytotoxic | lifespan, Compound 51 in combination with venetoclax compared to venetoclax alone ([1]; MOLM-13 tumor-bearing mice): statistically significant increased lifespan | lifespan, Compound 51 in combination with venetoclax plus azacitidine compared to doublet venetoclax plus azacitidine ([1]; MOLM-13 tumor-bearing mice): statistically significant increased lifespan | % ILS (increased life span) ([1]; NSG mice with established MOLM-13 tumors, 4 weeks treatment, azacitidine 2 mg/kg ip QD × 7, venetoclax 100 mg/kg po QD × 28, Compound 51 2 mg/kg po QD × 28 (Table 6)): 5%
